Here are results for 17 compounds from patent US20250122183A1 (Pfizer Inc., priority 2023, published 2025).

Format in all cases: biochemical
Details in all cases: replicate number in parentheses

One experiment deals with KAT8 Full length enzyme (Homo sapiens (Human), UniProt Q9H7Z6). Briefly: KAT8 assay (SAMDI-MS acetylation of H3 1-21 peptide).
The target in experiment [1] is KAT7+JADE1+EAF6+ING5 4 protein complex (Homo sapiens (Human), UniProt O95251). Briefly: KAT7 JADE1 assay (SAMDI-MS acetylation of H3 1-21 peptide).
The target of another experiment is KAT6A Full length enzyme (Homo sapiens (Human), UniProt Q92794). Briefly: KAT6A assay (SAMDI-MS acetylation of H3 1-21 peptide).
The mark [2] stands for this setting: Morrison equation fit, read-out: KAT8 Ki (nM) (replicate number).
The mark [3] stands for this setting: Morrison equation fit, read-out: KAT7 JADE1 Ki (nM) (replicate number).
The mark [4] stands for this setting: Morrison equation fit, read-out: KAT6A Ki (nM) (replicate number).
The mark [5] stands for this setting: read-out: KAT8 Ki (nM) (replicate).
Setting [6] is: read-out: KAT7 JADE1 Ki (nM) (replicate).
[7] abbreviates: read-out: KAT6A Ki (nM) (replicate).

Where two headings read alike, the source gives them in different places.

KAT6A Full length enzyme, sequence (Q92794 other isoform, or with tags, fused parts or gaps): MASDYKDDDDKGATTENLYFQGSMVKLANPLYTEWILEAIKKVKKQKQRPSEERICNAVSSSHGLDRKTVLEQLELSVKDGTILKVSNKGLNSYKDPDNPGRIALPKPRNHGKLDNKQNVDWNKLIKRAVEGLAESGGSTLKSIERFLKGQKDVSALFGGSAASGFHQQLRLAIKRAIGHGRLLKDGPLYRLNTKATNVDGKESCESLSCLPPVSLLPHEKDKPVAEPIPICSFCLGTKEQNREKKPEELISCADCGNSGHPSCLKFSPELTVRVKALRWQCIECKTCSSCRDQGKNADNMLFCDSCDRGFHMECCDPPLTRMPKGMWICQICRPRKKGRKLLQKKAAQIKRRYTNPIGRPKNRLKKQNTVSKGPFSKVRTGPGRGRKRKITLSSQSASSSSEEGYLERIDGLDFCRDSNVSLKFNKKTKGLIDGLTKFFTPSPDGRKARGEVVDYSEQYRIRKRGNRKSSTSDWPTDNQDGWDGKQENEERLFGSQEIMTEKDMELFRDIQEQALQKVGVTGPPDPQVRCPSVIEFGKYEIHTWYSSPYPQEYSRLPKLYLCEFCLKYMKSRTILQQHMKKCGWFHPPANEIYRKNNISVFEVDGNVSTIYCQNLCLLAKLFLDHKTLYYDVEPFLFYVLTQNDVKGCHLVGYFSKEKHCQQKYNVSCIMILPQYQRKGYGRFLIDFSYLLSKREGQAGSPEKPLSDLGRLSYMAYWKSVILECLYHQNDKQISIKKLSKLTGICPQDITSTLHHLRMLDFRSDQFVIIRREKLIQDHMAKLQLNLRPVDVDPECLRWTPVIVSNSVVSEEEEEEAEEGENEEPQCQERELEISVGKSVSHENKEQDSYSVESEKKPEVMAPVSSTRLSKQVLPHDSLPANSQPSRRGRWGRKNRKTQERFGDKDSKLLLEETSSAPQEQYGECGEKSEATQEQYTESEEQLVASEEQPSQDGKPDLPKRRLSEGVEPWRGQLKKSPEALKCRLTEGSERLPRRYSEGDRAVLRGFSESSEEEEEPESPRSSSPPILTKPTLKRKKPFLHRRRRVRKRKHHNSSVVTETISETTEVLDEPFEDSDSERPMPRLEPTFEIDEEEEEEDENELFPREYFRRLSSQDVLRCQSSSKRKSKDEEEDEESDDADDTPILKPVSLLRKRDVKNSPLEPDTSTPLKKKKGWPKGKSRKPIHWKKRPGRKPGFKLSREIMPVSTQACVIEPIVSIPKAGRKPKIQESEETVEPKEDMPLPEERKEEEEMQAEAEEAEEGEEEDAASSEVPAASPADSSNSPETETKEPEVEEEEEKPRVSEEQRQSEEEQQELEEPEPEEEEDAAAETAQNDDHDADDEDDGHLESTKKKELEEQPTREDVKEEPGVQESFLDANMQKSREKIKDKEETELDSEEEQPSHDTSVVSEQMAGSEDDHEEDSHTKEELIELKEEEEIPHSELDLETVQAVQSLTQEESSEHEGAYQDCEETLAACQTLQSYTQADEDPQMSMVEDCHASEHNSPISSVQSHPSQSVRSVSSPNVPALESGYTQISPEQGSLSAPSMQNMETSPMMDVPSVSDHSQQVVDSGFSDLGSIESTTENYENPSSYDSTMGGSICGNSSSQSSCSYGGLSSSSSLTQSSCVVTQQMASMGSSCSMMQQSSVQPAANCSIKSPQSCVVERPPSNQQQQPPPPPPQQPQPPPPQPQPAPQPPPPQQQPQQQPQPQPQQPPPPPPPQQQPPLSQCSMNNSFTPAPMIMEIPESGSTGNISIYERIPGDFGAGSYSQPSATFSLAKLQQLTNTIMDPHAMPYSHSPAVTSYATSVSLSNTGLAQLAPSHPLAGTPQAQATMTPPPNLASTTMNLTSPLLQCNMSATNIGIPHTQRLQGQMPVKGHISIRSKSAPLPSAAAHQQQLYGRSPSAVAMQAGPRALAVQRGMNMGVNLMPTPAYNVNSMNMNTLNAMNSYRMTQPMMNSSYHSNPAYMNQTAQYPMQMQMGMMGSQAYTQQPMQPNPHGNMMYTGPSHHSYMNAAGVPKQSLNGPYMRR
KAT8 Full length enzyme, sequence (Q9H7Z6 whole entry): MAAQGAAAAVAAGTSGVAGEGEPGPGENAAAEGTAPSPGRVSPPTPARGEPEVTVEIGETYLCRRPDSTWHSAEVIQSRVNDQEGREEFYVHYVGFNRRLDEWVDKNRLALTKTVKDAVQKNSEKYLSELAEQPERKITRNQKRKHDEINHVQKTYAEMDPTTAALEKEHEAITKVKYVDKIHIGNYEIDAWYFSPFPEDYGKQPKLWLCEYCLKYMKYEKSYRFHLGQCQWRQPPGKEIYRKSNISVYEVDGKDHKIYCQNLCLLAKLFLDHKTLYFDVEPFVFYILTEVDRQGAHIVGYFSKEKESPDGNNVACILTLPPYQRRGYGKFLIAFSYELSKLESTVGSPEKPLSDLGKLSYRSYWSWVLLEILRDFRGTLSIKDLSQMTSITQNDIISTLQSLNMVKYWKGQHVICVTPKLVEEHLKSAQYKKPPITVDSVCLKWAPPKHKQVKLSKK

As usually defined, the Ki is a measure of affinity in units of concentration, obtained from inhibition or displacement. For the compound `COc1cc2c(NS(=O)(=O)c3c(OC)cc(C4CCCN(C)C4)cc3OC)noc2cc1Nc1cc(C2CC2)n[nH]1` (single isomer, unassigned) [Example 149, N-{6-[(3-cyclopropyl-1H-pyrazol-5-yl)amino]-5-methoxy-1,2-benzoxazol-3-yl}-2,6-dimethoxy-4-(1-methylpiperidin-3-yl)benzene-1-sulfonamide], the Ki on KAT8 Full length enzyme (setting [2]) turned out to be 19000 nM; in experiment [1] (setting [3]) it was 5.3 nM; on KAT6A Full length enzyme (setting [4]), 0.6 nM.
For `CCc1cc(Nc2cc3onc(NS(=O)(=O)c4c(OC)cc(-c5cccc(C)n5)cc4OC)c3cc2OC)[nH]n1` [Example 231, N-{6-[(3-ethyl-1H-pyrazol-5-yl)amino]-5-methoxy-1,2-benzoxazol-3-yl}-2,6-dimethoxy-4-(6-methylpyridin-2-yl)benzene-1-sulfonamide], in that order: 859 nM, 8.8 nM and 1.1 nM.
Take `COc1cc2c(NS(=O)(=O)c3c(OC)cc(C4CCCN(C)C4)cc3OC)noc2cc1Nc1cc(C2CC2)n[nH]1` (single isomer, unassigned) [Example 150, N-{6-[(3-cyclopropyl-1 H-pyrazol-5-yl)amino]-5-methoxy-1,2-benzoxazol-3-yl}-2,6-dimethoxy-4-(1-methylpiperidin-3-yl)benzene-1-sulfonamide]: the Ki on KAT8 Full length enzyme (setting [2]) was 10300 nM; in experiment [1] (setting [3]), 6.3 nM; on KAT6A Full length enzyme (setting [4]), 0.8 nM.
For `CCc1cc(Nc2cc3onc(NS(=O)(=O)c4c(OC)cc(-c5nccc(C)n5)cc4OC)c3cc2OC)[nH]n1` [Example 233, N-{6-[(3-ethyl-1H-pyrazol-5-yl)amino]-5-methoxy-1,2-benzoxazol-3-yl}-2,6-dimethoxy-4-(4-methylpyrimidin-2-yl)benzene-1-sulfonamide], the Ki at KAT8 Full length enzyme (setting [2]) was determined as 2000 nM; in experiment [1] (setting [3]), 8.9 nM; at KAT6A Full length enzyme (setting [4]), 1.7 nM.
As for `COCc1cc(OC)c(S(=O)(=O)Nc2noc3cc(Nc4cc(C5CC5)n[nH]4)c(OC)cc23)c(OC)c1` [Example 270, N-{6-[(3-cyclopropyl-1 H-pyrazol-5-yl)amino]-5-methoxy-1,2-benzoxazol-3-yl}-2,6-dimethoxy-4-(methoxymethyl)benzene-1-sulfonamide], the Ki on KAT8 Full length enzyme (setting [5]) was 1790 nM; in experiment [1] (setting [6]), 13.5 nM; at KAT6A Full length enzyme (setting [7]), 1.3 nM.
With `COc1cc2c(NS(=O)(=O)c3c(OC)cc(CN(C)C)cc3OC)noc2cc1Nc1cc(C2CC2)n[nH]1` [Example 144, N-{6-[(3-cyclopropyl-1 H-pyrazol-5-yl)amino]-5-methoxy-1,2-benzoxazol-3-yl}-4-[(dimethylamino)methyl]-2,6-dimethoxybenzene-1-sulfonamide], the results for the Ki (on KAT8 Full length enzyme (setting [2]); in experiment [1] (setting [3]); at KAT6A Full length enzyme (setting [4])) were 2780 nM, 10.2 nM and 1.8 nM, respectively.
For `COc1cc2c(NS(=O)(=O)c3c(OC)cc(-c4cccn(C)c4=O)cc3OC)noc2cc1Nc1cc(C2CC2)n[nH]1` [Example 221, N-{6-[(3-cyclopropyl-1H-pyrazol-5-yl)amino]-5-methoxy-1,2-benzoxazol-3-yl}-2,6-dimethoxy-4-(1-methyl-2-oxo-1,2-dihydropyridin-3-yl)benzene-1-sulfonamide], in that order: 1490 nM, 6.2 nM and 0.7 nM.
Consider `COc1cc2c(NS(=O)(=O)c3c(OC)cc(N4CCCC4=O)cc3OC)noc2cc1Nc1cc(C2CC2)n[nH]1` [Example 246, N-{6-[(3-cyclopropyl-1H-pyrazol-5-yl)amino]-5-methoxy-1,2-benzoxazol-3-yl}-2,6-dimethoxy-4-(2-oxopyrrolidin-1-yl)benzene-1-sulfonamide], for which the results for the Ki (at KAT8 Full length enzyme (setting [5]); in experiment [1] (setting [6]); on KAT6A Full length enzyme (setting [7])) were 1840 nM, 6.4 nM and 1 nM, respectively.
As to `COc1cc2c(NS(=O)(=O)c3c(OC)cc(-c4ccc(C)cn4)cc3OC)noc2cc1Nc1cc(C2CC2)n[nH]1` [Example 215, N-{6-[(3-cyclopropyl-1H-pyrazol-5-yl)amino]-5-methoxy-1,2-benzoxazol-3-yl}-2,6-dimethoxy-4-(5-methylpyridin-2-yl)benzene-1-sulfonamide], the Ki at KAT8 Full length enzyme (setting [2]) was 994 nM; in experiment [1] (setting [3]) it was 4.2 nM; on KAT6A Full length enzyme (setting [4]), 0.4 nM.
With `COc1cc2c(NS(=O)(=O)c3c(OC)cc(C4CCOCC4)cc3OC)noc2cc1Nc1cc(C2CC2)n[nH]1` [Example 265, N-{6-[(3-cyclopropyl-1 H-pyrazol-5-yl)amino]-5-methoxy-1,2-benzoxazol-3-yl}-2,6-dimethoxy-4-(oxan-4-yl)benzene-1-sulfonamide], the Ki was 918 nM at KAT8 Full length enzyme (setting [5]), 2.3 nM in experiment [1] (setting [6]) and 0.3 nM on KAT6A Full length enzyme (setting [7]).
Consider `CCc1cc(Nc2cc3onc(NS(=O)(=O)c4c(OC)cc(-c5ccc(C)cn5)cc4OC)c3cc2OC)[nH]n1` [Example 236, N-{6-[(3-ethyl-1H-pyrazol-5-yl)amino]-5-methoxy-1,2-benzoxazol-3-yl}-2,6-dimethoxy-4-(5-methylpyridin-2-yl)benzene-1-sulfonamide], for which the values for the Ki (at KAT8 Full length enzyme (setting [2]); in experiment [1] (setting [3]); on KAT6A Full length enzyme (setting [4])) were 364 nM, 3.5 nM and 0.4 nM, respectively.
Regarding `COc1cc2c(NS(=O)(=O)c3c(OC)cc(-c4nccc(C)n4)cc3OC)noc2cc1Nc1cc(C2CC2)n[nH]1` [Example 214, N-{6-[(3-cyclopropyl-1H-pyrazol-5-yl)amino]-5-methoxy-1,2-benzoxazol-3-yl}-2,6-dimethoxy-4-(4-methylpyrimidin-2-yl)benzene-1-sulfonamide], the Ki at KAT8 Full length enzyme (setting [2]) is 1720 nM; in experiment [1] (setting [3]) it was 4.3 nM; on KAT6A Full length enzyme (setting [4]) it was 0.7 nM.
As to `CCc1cc(Nc2cc3onc(NS(=O)(=O)c4c(OC)cc(-c5cnc(C)cn5)cc4OC)c3cc2OC)[nH]n1` [Example 232, N-{6-[(3-ethyl-1H-pyrazol-5-yl)amino]-5-methoxy-1,2-benzoxazol-3-yl}-2,6-dimethoxy-4-(5-methylpyrazin-2-yl)benzene-1-sulfonamide], the results for the Ki (at KAT8 Full length enzyme (setting [2]); in experiment [1] (setting [3]); at KAT6A Full length enzyme (setting [4])) were 2620 nM, 6.4 nM and 0.6 nM, respectively.
`COc1cc2c(NS(=O)(=O)c3c(OC)cc([C@@H]4COCCO4)cc3OC)noc2cc1Nc1cc(C2CC2)n[nH]1` [Example 145]: the Ki on KAT8 Full length enzyme (setting [2]) came to 1510 nM; in experiment [1] (setting [3]), 9.2 nM; on KAT6A Full length enzyme (setting [4]) it was 1.8 nM.
Take `CCc1cc(Nc2cc3onc(NS(=O)(=O)c4c(OC)cc(-c5ccc(C)nn5)cc4OC)c3cc2OC)[nH]n1` [Example 235, N-{6-[(3-ethyl-1H-pyrazol-5-yl)amino]-5-methoxy-1,2-benzoxazol-3-yl}-2,6-dimethoxy-4-(6-methylpyridazin-3-yl)benzene-1-sulfonamide]: the Ki on KAT8 Full length enzyme (setting [2]) turned out to be 2360 nM; in experiment [1] (setting [3]), 6 nM; on KAT6A Full length enzyme (setting [4]), 0.8 nM.
In the case of `COc1cc2c(NS(=O)(=O)c3c(OC)cc(C(C)OC)cc3OC)noc2cc1Nc1cc(C2CC2)[nH]n1` (single isomer, unassigned) [Example 272, N-{6-[(5-cyclopropyl-1H-pyrazol-3-yl)amino]-5-methoxy-1,2-benzoxazol-3-yl}-2,6-dimethoxy-4-(1-methoxyethyl)benzene-1-sulfonamide], the Ki at KAT8 Full length enzyme (setting [5]) was 2650 nM; in experiment [1] (setting [6]), 5 nM; at KAT6A Full length enzyme (setting [7]), 0.7 nM.
In the case of `CCc1cc(Nc2cc3onc(NS(=O)(=O)c4c(OC)cc(-c5ncc(C)cn5)cc4OC)c3cc2OC)[nH]n1` [Example 234, N-{6-[(3-ethyl-1H-pyrazol-5-yl)amino]-5-methoxy-1,2-benzoxazol-3-yl}-2,6-dimethoxy-4-(5-methylpyrimidin-2-yl)benzene-1-sulfonamide], the Ki on KAT8 Full length enzyme (setting [2]) came out at 1680 nM; in experiment [1] (setting [3]), 8.5 nM; on KAT6A Full length enzyme (setting [4]), 1 nM.
